Read-outs that look alike come from different tables or passages of the source.
Tests used:
NRF2 [1] = test: qPCR analysis of NRF2-regulated genes; assay type: cell-based, human; conditions: for Potential NRF2 Activation (>=2 target genes induced, by >=1.5-fold): Assay 13(p); for fold induction at 10 µM: Homo sapiens
Summary of the method: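 Expression of HMOX1, NQO1, GCLC and GSTM1 measured by qPCR relative to B2M, PPIA and GAPDH. Cells were WI-38 fibroblasts exposed 24 hrs to 10 μM compound, with RNA and cDNA prepared via Cells-to-Ct. Where stated, cells were first transfected 36 hrs with FOXO3 or NRF2 siRNA at 10 nM.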

NRF2 [2] = test: in vitro; assay type: cell-based, human
LC3A/B puncta = test: Autophagy induction analysis (LC3A/B puncta immuno-staining); assay type: cell-based, human
Summary of the method: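 Read-out is LC3A/B puncta intensity per DAPI-positive nucleus, either total puncta (Exp. 1) or puncta colocalizing with LAMP2 lysosomes (Exp. 2). Cells were WI-38, exposed to compounds for 24 hrs before antibody staining overnight at 4° C and automated imaging.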

C. elegans = C. elegans lifespan assays (liquid and plate); assay type: in vivo, Caenorhabditis elegans; conditions: for ILS at 60 µM / ILS at 66 µM: Caenorhabditis elegans; for O = Life span- extending scores in worms: score scale 0 to 2, 4 to 6 independent trials; for M = Lifespan-extending scores in worms: summary score
[3] = 24 h, Assay 12(o), at 10 uM, qPCR, read-out: Induction of NRF2-regulated genes: HMOX1 normalized fold-change
[4] = 24 h, Assay 12(o), at 10 uM, qPCR, read-out: Induction of NRF2-regulated genes: NQO1 normalized fold-change
[5] = rounded fold change, WI-38 cells, 10 μM, 24 hrs (RP11 for Gr-1D, RP29 for Gr-4D), read-out: Summary of effects on NRF2-regulated genes: HMOX1
[6] = rounded fold change, WI-38 cells, 10 μM, 24 hrs (RP29 for Gr-4D), read-out: Summary of effects on NRF2-regulated genes: NQO1
[7] = 10 μM, 24 hrs, WI-38, read-out: Expression of at least two NRF2 target genes
[8] = 10 μM, 24 hrs, WI-38 cells, qPCR, normalized to B2M, n = 4, read-out: HMOX1 expression, normalized fold change (NRF2-regulated gene)
[9] = 10 μM, 24 hrs, WI-38 cells, qPCR, normalized to B2M, n = 4, read-out: NQO1 expression, normalized fold change (NRF2-regulated gene)
[10] = WI-38 cells, 10 μM, 24 hrs, n=4, qPCR normalized by B2M, read-out: GCLC Normalized fold change
[11] = WI-38 cells, 10 μM, 24 hrs, n=4, qPCR normalized by B2M, read-out: GSTM1 Normalized fold change
[12] = WI-38 cells, 10 μM, 24 hrs, n=4, qPCR normalized by B2M, read-out: HMOX1 Normalized fold change
[13] = WI-38 cells, 10 μM, 24 hrs, n=4, qPCR normalized by B2M, read-out: NQO1 Normalized fold change
[14] = in liquid, wild type, with FuDR, 1.0 × 10^9 bacteria/ml, read-out: relative change of mean lifespan vs control, Trial 1
[15] = in liquid, wild type, with FuDR, 2.5 × 10^9 bacteria/ml, read-out: relative change of mean lifespan vs control, Trial 2
[16] = on plate, CF512 temperature-sensitive sterile animals, without FuDR, 2.0 × 10^10 bacteria/ml, read-out: relative change of mean lifespan vs control, Trial 3
[17] = Assay 2(z), 1.0 × 10^9 bacteria/ml, wild type + FuDR (2012 July), read-out: Lifespan assay in liquid
[18] = Assay 3(aa), 2.5 × 10^9 bacteria/ml, wild type + FuDR, read-out: Lifespan assay in liquid
[19] = Assay 4(ab), 2.0 × 10^10 bacteria/ml, CF512 worms, no FuDR, read-out: Lifespan assay on plates

Row | Compound | F = Potential NRF2 Activation (NRF2 [1]; 2-point score) | fold induction at 10 µM (NRF2 [1]; [3]) | fold induction at 10 µM (NRF2 [1]; [5]) | fold induction at 10 µM (NRF2 [1]; [8]) | fold induction at 10 µM (NRF2 [1]; [10]) | fold induction at 10 µM (NRF2 [1]; [11]) | fold induction at 10 µM (NRF2 [1]; [12]) | fold induction at 10 µM (NRF2 [1]; [13]) | F = Potential NRF2 Activation (NRF2 [1]; summary score) | J = NRF2-dependency for H2O2-resistance (NRF2 [2]; score) | J = NRF2-dependency for H2O2-resistance (NRF2 [2]; summary score) | H = Potential Autophagy Induction (LC3A/B puncta; score) | H = Potential Autophagy Induction (LC3A/B puncta; summary score) | ILS at 60 µM (C. elegans; [14]) [%] | ILS at 60 µM (C. elegans; [15]) [%] | ILS at 60 µM (C. elegans; [16]) [%] | ILS at 66 µM (C. elegans; [17]) [%] | ILS at 66 µM (C. elegans; [18]) [%] | ILS at 66 µM (C. elegans; [19]) [%] | O = Life span- extending scores in worms (C. elegans) | also measured
1 | CCc1ccc(Oc2nc3ccccn3c(=O)c2/C=C(\C#N)C(=O)NC2CCCCC2)cc1 [Gr-5A] | 2 | 2.06 | 2.06 | 2.06 | 0.919 | 1.15 | 2.06 | 1.55 | 2 | 0 | 0 | 0 | 0 | 25.8 | -1.4 | -8.3 | 25.8 | -1.4 | -8.3 | 0 | Potential NRF2 Activation (>=2 target genes induced, by >=1.5-fold) (NRF2 [1]): YES; fold induction at 10 µM (NRF2 [1]; [4]): 1.55; fold induction at 10 µM (NRF2 [1]; [6]): 1.55; fold induction at 10 µM (NRF2 [1]; [7]): > 1.5; fold induction at 10 µM (NRF2 [1]; [9]): 1.55; M = Lifespan-extending scores in worms (C. elegans): 0
2 | COc1ccc(/C=C2\SC(=N)N(c3nccs3)C2=O)cc1 [O21] | 0 | 3.02 | 3.02 | 3.02 | 0.512 | 1.25 | 3.02 | 0.836 | 0 | 1 | 1 | 0 | 0 | 7.9 | -0.5 | 12.2 | 7.9 | -0.5 | 12.2 | 0 | fold induction at 10 µM (NRF2 [1]; 24 h, Assay 12(o), at 10 uM, qPCR, read-out: Induction of NRF2-regulated genes: GCLC normalized fold-change): 0.51; fold induction at 10 µM (NRF2 [1]; 24 h, Assay 12(o), at 10 uM, qPCR, read-out: Induction of NRF2-regulated genes: GSTM1 normalized fold-change): 1.25; fold induction at 10 µM (NRF2 [1]; rounded fold change, WI-38 cells, 10 μM, 24 hrs (RP29 for Gr-4D), read-out: Summary of effects on NRF2-regulated genes: GSTM1): 1.25; fold induction at 10 µM (NRF2 [1]; rounded fold change, WI-38 cells, 10 μM, 24 hrs, read-out: Summary of effects on NRF2-regulated genes: GCLC): 0.51; fold induction at 10 µM (NRF2 [1]; 10 μM, 24 hrs, WI-38 cells, qPCR, normalized to B2M, n = 4, read-out: GCLC expression, normalized fold change (NRF2-regulated gene)): 0.51; fold induction at 10 µM (NRF2 [1]; 10 μM, 24 hrs, WI-38 cells, qPCR, normalized to B2M, n = 4, read-out: GSTM1 expression, normalized fold change (NRF2-regulated gene)): 1.25; NRF2-dependency for H2O2-resistance, at 10 uM - with H2O2, 1st experiment (NRF2 [2]; 10 uM, experiment 1 (1st), with H2O2): 1st, partial;; NRF2-dependency for H2O2-resistance, at 10 uM (experiment 3) - with & without H2O2 (NRF2 [2]; 10 uM, experiment 3, with & without H2O2): YES; NRF2-dependency for H2O2-resistance (experiment 3) (NRF2 [2]; 10 uM, with & without H2O2, NRF2 knockdown in WI-38 cells, YES = resistance reduced by at least 50%, partial = 25% to 50%): YES; NRF2-dependency for H2O2-resistance, 1st experiment (NRF2 [2]; 10 uM, with H2O2, NRF2 knockdown in WI-38 cells, YES = resistance reduced by at least 50%, partial = 25% to 50%): partial;; Assay 17: NRF2-dependency for H2O2-resistance (NRF2 [2]; 10 uM, YES/NO): YES; M = Lifespan-extending scores in worms (C. elegans): 0
3 | CC1C(=O)C(C)C(c2cc(Cl)ccc2O)NC1c1cc(Cl)ccc1O (stereo not drawn) [O6] | 2 | 3.85 | 3.85 | 3.85 | 1.06 | 0.965 | 3.85 | 1.62 | 2 | 0 | 0 | 0 | 0 | 28.3 | 10.3 | 3.9 | 28.3 | 10.3 | 3.9 | 1 (1 for lifespan extension observed in 2 trials) | Potential NRF2 Activation (>=2 target genes induced, by >=1.5-fold) (NRF2 [1]): YES; fold induction at 10 µM (NRF2 [1]; [4]): 1.62; fold induction at 10 µM (NRF2 [1]; [6]): 1.62; fold induction at 10 µM (NRF2 [1]; [7]): > 1.5; fold induction at 10 µM (NRF2 [1]; [9]): 1.62; M = Lifespan-extending scores in worms (C. elegans): 1 (1 for lifespan extension observed in 2 trials)
